# Legend:
# [1] = test system: tubulin; experiment: Tubulin polymerization assay in the absence of GTP (optical density at 350 nm); assay type: biochemical; conditions: tubulin monomer, versus DMSO control
# Excerpt: To test the activity of the trans-cyclooctene taxol analog, we tested for the well known ability of Taxol® to polymerize tubulin in the absence of GTP (Shelanski et al., 1973, Proc Natl Acad Sci USA, 70, 765-8; Schiff and Horwitz, 1981, Biochemistry, 20, 3247-52). Optical density measurements at 350 nm (FIG. 6B) were used to determine the degree of tubulin polymerization after exposure of tubulin monomer to Taxol®, trans-cyclooctene taxol, and a DMSO control. […] Taxol trans-cyclooctene induced tubule bundles could be visualized by subsequent staining with tetrazine fluorophore probes such as tetrazine-BODIPY FL yielding brightly fluorescent tubule structures that could be imaged by fluorescent microscopy (FIG. 6c).
# [2] = test system: PtK2 rat kidney cells; experiment: Live cell labeling and confocal imaging of trans-cyclooctene taxol with tetrazine probes; assay type: cell-based, rat kangaroo; conditions: for staining of intracellular structures by confocal microscopy: 1 μM trans-cyclooctene taxol 1 hour 37° C., wash, then 1 μM tetrazine probe 20 minutes room temperature
# Procedure: For live cell studies, PtK2 […] cells were incubated in cell media containing 1 μM trans-cyclooctene taxol for 1 hour at 37° C. After washing with media three times, the cells were exposed to media containing 1 μM tetrazine-BODIPY FL for 20 minutes at room temperature. The cells were then washed and imaged on a confocal microscope. […] Taxol® is known to bind the microtubular networks of cells and there have been several reports of fluorescent taxol derivatives that can be used to image microtubular networks (Evangelio et al., 1998, Cell Motil Cytoskeleton, 39, 73-90; Guy et al., 1996, Chem Biol, 3, 1021-31; Souto et al., 1995, Angew. Chem. Int. Ed., 34, 2710-2712). In addition to tubular structures, the perinuclear region was stained. This staining is due to nonspecific uptake of the taxol analog by intracellular membranes such as the endoplasmic reticulum and Golgi.
# [3] = test system: trans-cyclooctene bound to antibody; experiment: Kinetic measurements of tetrazine cycloaddition to surface-absorbed trans-cyclooctene modified antibody; assay type: physicochemical; conditions: PBS at 37° C.; 375, 750 and 1000 nM tetrazine; slope of pseudo first order rate constants versus concentration
# Procedure: trans-cyclooctene modified antibody was physically absorbed onto polystyrene by immersing the surfaces in a 0.1 mg/mL solution of antibody in PBS for 3 hours. After numerous washes with PBS, the surface was exposed to 750 nM tetrazine VT680 in PBS at 37° C. After 5 minutes, the tetrazine solution was removed and the surface washed 3 times with PBS. The fluorescence due to the VT680 dye was measured on a fluorescence plate reader (Tecan Safire 2) and corrected for background fluorescence. The surface was again exposed to the tetrazine solution and the entire process repeated at 10, 15, 30, and 60 minutes. The fluorescence measurements were plotted versus time, fitted to a first order exponential growth curve and the pseudo first order rate constant determined The entire experiment was repeated using two different concentrations of tetrazine (375 nM and 1000 nM) and the pseudo first order rate constants from all three experiments were plotted versus concentration, fitted to a straight line; the slope of the line was 6000±200 M−1sec−1 and was reported at the second order rate constant for the reaction between tetrazine VT680 and trans-cyclooctene bound to antibody.
# [4] = test system: EGFR on A549 cells; experiment: Pretargeted live cell labeling with trans-cyclooctene cetuximab and tetrazine-VT680, confocal microscopy; assay type: cell-based, human
# Procedure: The human lung adenocarcinoma epithelial cell line A549 was selected for all experiments due to its mid-level over-expression of EGFR. The cell line was maintained in a standard ATCC formulated F-12K media supplemented with 10% fetal bovine serum and 5% penicillin/streptomycin.
# Cells were grown on break away glass chamber slides and washed six times after administering either imaging agent. A multichannel upright laser-scanning confocal microscope (FV1000; Olympus) was used to image live cells with a 60× water immersion objective lens. Image collection and fluorophore excitations with lasers at 488 nm (EGFP), 543 nm (AF555), and 633 nm (VT680) were done serially to avoid cross talk between channels. Data were acquired with Fluoview software (version 4.3; Olympus) and image stacks were processed and analyzed with ImageJ software (version 1.41, Bethesda Md.).
# Direct labeling of the antibodies with AF555 was monitored in the red channel.
# [5] = test system: Her2/neu growth factor receptors on SKBR-3 human mammary carcinoma cells; experiment: Live cell labeling with norbornene-modified trastuzumab and tetrazine-VT680, fluorescence microscopy; assay type: cell-based
# Excerpt: Norbornene carboxylic acid ((1S,2S,4S)-bicyclo[2.2.1]hept-5-en-2-yl acetic acid) was stirred for three hours with 1.1 equivalents of disuccinimidyl carbonate in acetontrile using 1 equivalent of pyridine as base. After reaction, solvent and base were removed by rotary evaporation and the crude norbornene succinimidyl ester with N-hydroxysuccinimide side product was recovered. Commercially purchased humanized anti-HER2/neu antibody trastuzumab (Genentech, San Francisco, Calif.) in 0.1M sodium bicarbonate buffer (pH 8.2) was incubated for three hours at room temperature with a 5 molar excess of 5-(and-6)-carboxytetramethylrhodamine, succinimidyl ester (Invitrogen) and a 30 molar excess of crude norbornene succinimidyl ester. The antibody was then isolated and washed by centrifuge purification and stored in PBS buffer. Control antibody was modified in an identical manner but excluding the norbornene NHS.
# SKBR-3 human mammary carcinoma cell lines were maintained in complete McCoy's medium. Cells were incubated at 37° C. with 200 nM modified trastuzumab for 30 minutes and then washed twice with 10% fetal bovine serum (FBS) in Hanks balanced salt solution (HBSS). Tetrazine labeling was performed by incubating the cells for 30 minutes at 37° C. in 10% FBS/HBSS containing 50 μM of tetrazine-VT680. Cells were then washed twice with 10% FBS/HBSS and imaged with by fluorescence microscopy.
compound,measurement,setting,value
CC(=O)OC1C(=O)C2(C)C(OC(=O)CCNC(=O)OC3CCC=CCCC3)CC3OCC3(OC(C)=O)C2C(OC(=O)c2ccccc2)C2(O)CC(OC(=O)C(O)C(NC(=O)c3ccccc3)c3ccccc3)C(C)=C1C2(C)C (stereo not drawn) [trans-cyclooctene taxol],degree of tubulin polymerization (optical density at 350 nm),[1],induced polymerization
same,staining of intracellular structures by confocal microscopy,[2],tubular structures were clearly stained
3-(p-Benzylamino)-tetrazine-VT680 Conjugate,staining of intracellular structures by confocal microscopy,[2],showed intracellular structures reflecting microtubule networks
same,staining of intracellular structures by confocal microscopy,[2]; listed as sulfonated Vivo-Tag 680 tetrazine,very little staining and an absence of tubular structures
same,second order rate constant,[3],6000 ± 200 M⁻¹ s⁻¹
same,colocalization of NIR (VT680) signal with AF555-labeled antibody,"[4]; A549 cells pretargeted with AF555-labeled trans-cyclooctene cetuximab, then tetrazine-VT680",excellent colocalization of the AF555 and VT680 signals with little background fluorescence
same,NIR fluorescence in control experiments,"[4]; unlabeled cetuximab and tetrazine-VT680, or trans-cyclooctene-cetuximab and unlabeled VT680",no NIR fluorescence
Cc1cc(C)n2c1C=C1C=CC(CCC(=O)NCc3ccc(-c4nncnn4)cc3)=[N+]1[B-]2(F)F [tetrazine-BODIPY FL],staining of intracellular structures by confocal microscopy,[2],tubular structures were clearly stained
same,fluorescent background in control experiments,[2]; tetrazine-BODIPY FL alone or with unmodified taxol,minimal fluorescent background
"CC(=O)O[C@H]1C(=O)[C@@]2(C)[C@H]([C@H](OC(=O)c3ccccc3)[C@]3(O)C[C@H](OC(=O)[C@H](O)[C@@H](NC(=O)c4ccccc4)c4ccccc4)C(C)=C1C3(C)C)[C@]1(OC(C)=O)CO[C@@H]1C[C@@H]2O [Taxol®, paclitaxel, reference compound]",degree of tubulin polymerization (optical density at 350 nm),[1],induced polymerization
"5-(4-(1,2,4,5-Tetrazin-3-yl)benzylamino)-5-oxopentanoic Acid [Example 3]",labeling of cells in rhodamine and NIR fluorescence channels,"[5]; 200 nM norbornene- and rhodamine-modified trastuzumab 30 minutes, then 50 μM tetrazine-VT680 30 minutes 37° C. in 10% FBS/HBSS","Significant labeling, which colocalizes"
same,NIR labeling with control antibody,[5]; control antibody containing rhodamine but not norbornene,no NIR labeling

# Reference: patent US8900549B2, “Compositions and methods for delivering a substance to a biological target” (The General Hospital Corporation, priority 2008, dated 2014)
